Measurements published in patent US20060142315A1, “Substituted biaryl piperazinyl-pyridine analogues” (priority 2003, published 2006).
Like-named read-outs stand apart in the source and are kept apart here.

What was measured:
[1] = target: M. avium (Ma) dihydrofolate reductase (Mycobacterium avium, UniProt O30463); assay: biochemical
[2] = target: T1, T. gondii (Tg) dihydrofolate reductase (Toxoplasma gondii, UniProt Q07422); format: biochemical
[3] = target: P. carinii (Pc) dihydrofolate reductase (Pneumocystis carinii, UniProt P16184); assay: Standardized spectrophotometric DHFR inhibition assay, P. carinii enzyme; format: biochemical; settings: for IC50: Pc DHFR
[4] = target: T2, rat liver DHFR (Rattus norvegicus, UniProt Q920D2); assay: Standardized spectrophotometric DHFR inhibition assay, rat liver enzyme; format: biochemical
T2 construct: rat liver DHFR; from tissue; host or cells: rat liver
T2 sequence (Q920D2 1-187): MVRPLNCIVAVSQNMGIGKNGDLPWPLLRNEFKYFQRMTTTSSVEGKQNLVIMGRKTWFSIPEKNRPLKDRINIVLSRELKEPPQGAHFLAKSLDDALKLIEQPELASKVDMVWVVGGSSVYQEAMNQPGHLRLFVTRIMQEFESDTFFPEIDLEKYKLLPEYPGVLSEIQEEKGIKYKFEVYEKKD

[5] = target: T1, T. gondii (Tg) dihydrofolate reductase; settings: cited from earlier work; for IC50: read-out: IC50 against Tg DHFR
[6] = relative to rat liver DHFR, 95% confidence limits in parentheses

P. carinii (Pc) dihydrofolate reductase, sequence (P16184 whole entry): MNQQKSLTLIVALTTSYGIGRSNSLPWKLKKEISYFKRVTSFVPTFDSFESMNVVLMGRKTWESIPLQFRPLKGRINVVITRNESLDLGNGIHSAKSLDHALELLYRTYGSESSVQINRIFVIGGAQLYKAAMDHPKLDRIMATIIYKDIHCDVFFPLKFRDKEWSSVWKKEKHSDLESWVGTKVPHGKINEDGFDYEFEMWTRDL
M. avium (Ma) dihydrofolate reductase, sequence (O30463 1-181): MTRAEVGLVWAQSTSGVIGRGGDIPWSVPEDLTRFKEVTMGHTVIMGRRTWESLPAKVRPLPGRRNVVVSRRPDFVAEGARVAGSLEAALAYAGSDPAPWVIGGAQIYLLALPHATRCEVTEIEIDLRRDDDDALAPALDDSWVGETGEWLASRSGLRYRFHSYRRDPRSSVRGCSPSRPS
T1 sequence (Q07422 whole entry): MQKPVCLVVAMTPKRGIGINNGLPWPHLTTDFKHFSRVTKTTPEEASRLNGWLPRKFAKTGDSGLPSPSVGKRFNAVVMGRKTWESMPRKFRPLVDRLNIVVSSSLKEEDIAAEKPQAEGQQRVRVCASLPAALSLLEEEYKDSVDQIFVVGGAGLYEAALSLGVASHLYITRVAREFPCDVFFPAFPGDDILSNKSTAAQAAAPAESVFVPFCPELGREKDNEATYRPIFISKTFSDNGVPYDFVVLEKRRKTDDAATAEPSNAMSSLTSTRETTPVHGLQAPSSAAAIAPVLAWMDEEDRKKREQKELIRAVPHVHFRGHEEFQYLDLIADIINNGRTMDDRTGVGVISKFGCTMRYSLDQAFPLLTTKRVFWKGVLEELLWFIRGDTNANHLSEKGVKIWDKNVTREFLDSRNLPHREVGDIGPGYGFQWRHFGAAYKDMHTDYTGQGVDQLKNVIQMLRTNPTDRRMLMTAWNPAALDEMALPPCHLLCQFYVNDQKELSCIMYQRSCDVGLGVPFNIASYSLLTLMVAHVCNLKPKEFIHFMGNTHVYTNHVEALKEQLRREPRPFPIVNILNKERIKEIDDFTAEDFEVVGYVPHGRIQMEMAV

Compound	IC50 ([1]; Ma DHFR) [µM]	IC50 [2] [µM]	IC50 ([2]; Tg DHFR) [µM]	IC50 [3] [µM]	IC50 [4] [µM]	IC50 [1] [µM]	further results
COc1ccc(OCCCCC(=O)O)cc1Cc1cnc(N)nc1N [Compound 1b, reference compound]	0.058	0.11					
COc1ccc(C#CCCC(=O)O)cc1Cc1cnc(N)nc1N [Compound 2]			0.097				
COc1ccc(C#CCCCC(=O)O)cc1Cc1cnc(N)nc1N [Compound 3]	0.007	0.032		0.028	2.2		melting point: 121 to 124 °C
COc1ccc(C#CCCCCC(=O)O)cc1Cc1cnc(N)nc1N [Compound 4]		0.072		0.87	25	0.041	melting point: 187 to 189 °C
COc1ccc(CCCCC(=O)O)cc1Cc1cnc(N)nc1N [Compound 5]	0.035		0.058	0.15	3.2		melting point: 134 to 137 °C
COc1ccc(CCCCCC(=O)O)cc1Cc1cnc(N)nc1N [Compound 6]	0.016		0.0084	0.15	4.1		
COc1ccc(CCCCCCC(=O)O)cc1Cc1cnc(N)nc1N [Compound 7]		0.03		0.53	4.6	0.089	
COc1ccc(OCc2cccc(C(=O)O)c2)cc1Cc1cnc(N)nc1N [Compound 8, 2,4-Diamino-5-[2′-methoxy-5′-(3″-carboxybenzyloxy)benzyl]pyrimidine]		0.6		0.89	19	0.12	
COc1ccc(OCc2ccc(C(=O)O)cc2)cc1Cc1cnc(N)nc1N [Compound 9, 2,4-Diamino-5-(2′-methoxy-5′-(4″-carboxybenzyloxy)benzyl]pyrimidine]	0.06		2		21		
COc1ccc(C#CCOc2ccccc2C(=O)O)cc1Cc1cnc(N)nc1N [Compound 10, 2,4-Diamino-5-[2′-methoxy-5′-[3-(2″-carboxyphenoxy)propyn-1-yl]benzyl]pyrimidine]			0.5	2.3	6.2	0.036	Selectivity Index (SI) P. carinii [3, 6]: 2.7 (2.1-3.5); Selectivity Index (SI) M. avium [1]: 170 (130-230); Selectivity Index (SI) T. gondii [2, 6]: 13 (9.3-17)
COc1ccc(C#CCOc2cccc(C(=O)O)c2)cc1Cc1cnc(N)nc1N [Compound 11, 2,4-Diamino-5-[2′-methoxy-5′-[3-(3″-carboxyphenoxy)-1-propynyl]benzyl]pyrimidine]		1.6		5.6	14	0.057	
CCc1nc(N)nc(N)c1-c1ccc(Cl)c(N=NN2CCOCC2)c1 [Compound 37]							SI against Tg DHFR [5]: 37: R^1R^2 = morpholino (IC50 = 0.19 μM, SI = 140)^18; IC50 [5]: 0.19 µM
CCc1nc(N)nc(N)c1-c1ccc(Cl)c(N=NN(C)C)c1 [Compound 38]							IC50 ([5]; literature compounds of Table 2, standardized assay conditions): 0.31 µM; SI against Tg DHFR ([5]; literature compounds of Table 2, Tg versus rat DHFR): 61
Nc1nc(N)c2nc(CN3c4ccccc4C=Cc4ccccc43)cnc2n1 [Compound 40]							SI against Tg DHFR [5]: 40: R = N-Dibenz[b,f]azepinyl (IC50 = 0.043 μM, SI = 102)^3g
COc1cc(Cc2cnc(N)nc2N)cc(C#CCCCC(=O)O)c1OC [Compound 49, 2,4-Diamino-5-[3′,4′-dimethoxy-5′-(5-carboxy-1-pentynyl)benzyl]-pyrimidine]				0.001	5000	0.0024	
